Measurements reported in US20180116933A1, “ANTI-OXIDATIVE OR ANTI-AGING COMPOSITION CONTAINING 5-ADAMANTAN-1-YL-N-(2,4-DIHYDROXYBENZYL)-2,4-DIMETHOXYBENZAMIDE” (Amorepacific Corporation, priority 2015, published 2018).

What was measured:
[1] = DPPH free radical scavenging evaluation; format: biochemical; conditions: 0 to 200 μg/ml, DPPH 0.2 mM in methanol, 30 minutes, absorbance 517 nm (FIG. 2)
Experimental: The DPPH free radical scavenging evaluation method was performed as follows.
In 5-adamantan-1-yl-N-(2,4-dihydroxybenzyl)-2,4-dimethoxybenzamide (referred to as ‘AP736’ in FIG. 2) prepared in Example, a reaction product adjusted to a concentration of from 0 to 200 μg/ml and a methanol solution of DPPH (0.2 mM) were incubated for 30 minutes. The absorbance of the solution was measured at 517 nm. The scavenging ability was expressed by the value obtained by comparing the absorbance of the solution to that (100%) of the control DPPH solution in % as presented in the following Mathematical Formula 1.

[2] = test system: matrix metalloprotease-1 (MMP-1); assay: MMP-1 assay: UV-induced MMP-1 expression in HS68 human fibroblasts (MMP-1 ELISA kit); format: cell-based; conditions: UV-irradiated HS68 cells, 0.1, 0.5, and 1 μM, 48 hours (FIG. 3)
Experimental: In order to confirm the anti-aging effect of the sample, an experiment to see how much 5-adamantan-1-yl-N-(2,4-dihydroxybenzyl)-2,4-dimethoxybenzamide can inhibit the expression of matrix metalloprotease-1 (MMP-1) to be induced by ultraviolet (UV) rays was performed.
Human fibroblasts (HS68 cells, purchased from ATCC (Rockville, Md., USA)) were plated on a well plate at a density of 7.5×10^4 cells/well, then incubated in DMEM (Dulbecco's Modified Eagle's Medium) containing 10% FBS for 24 hours, then washed with PBS (phosphate-buffered saline), then 0.5 ml of PBS was added thereto, and the expression of MMP-1 was induced by irradiating the resultant incubated cells with ultraviolet rays. After changing to Serum-Free DMEM, the resultant was treated with 5-adamantan-1-yl-N-(2,4-dihydroxybenzyl)-2,4-dimethoxybenzamide (referred to as ‘AP736’ in FIG. 3) prepared in Example. The amount of the supernatant obtained after incubation for a certain period of time (48 hours) was measured by using an MMP-1 ELISA kit.
In other words, HS68 cells of human dermal fibroblasts were treated with ultraviolet rays to increase the expression of MMP-1, and the resulting HS68 cells were then treated with each sample to see whether the expression of MMP-1 decreased. The experimental results are illustrated in FIG. 3. […]

Raw 264.7 cells = assay: Cytotoxicity test (MTT method) in Raw 264.7 cells; format: cell-based
Experimental: RAW264.7 cells (obtained from ATCC (Rockville, Md., USA) as a murine macrophage cell line) were incubated in RPMI 1640 medium supplemented with FBS (10% heat-inactivated fetal bovine serum; Gibco, Grand Island, N.Y., USA), glutamine, antibiotics (penicillin and streptomycin) at 37° C. and 5% CO2.
In all experiments, cells were detached with a cell scraper. When cells were incubated at a concentration of 2×10^6 cells/mL in the experiment, the percentage of dead cells was 1% or less (confirmed by a trypan blue dye exclusion method).
In order to determine the appropriate concentration of extract treatment for anti-inflammatory evaluation of 5-adamantan-1-yl-N-(2,4-dihydroxybenzyl)-2,4-dimethoxybenzamide, the cytotoxicity of 5-adamantan-1-yl-N-(2,4-dihydroxybenzyl)-2,4-dimethoxybenzamide at each concentration was evaluated in the cells used in the experiments.
Raw 264.7 cells in the subculture were plated on a well plate at a density of […]. After 18 hours of cell incubation, the cells were subjected to a sample treatment so that the concentration of 5-adamantan-1-yl-N-(2,4-dihydroxybenzyl)-2,4-dimethoxybenzamide (referred to as ‘AP736’ in FIG. 1) was from 0 to 30 μM. The cells were incubated for 8 hours or 24 hours in an incubator. The cytotoxic effect was evaluated by the conventional MTT method. Before the last 3 hours of incubation, 10 μL of MTT {3-[4,5-dimethylthiazol-2-yl]-2,5-diphenyltetrazolium bromide} solution (10 mg/mL in phosphate-buffered saline, pH 7.4) was added to each well. To each well, 15% SDS (sodium dodecyl sulfate) was added to terminate the reaction, and the formazan crystal was then dissolved therein. Thereafter, the absorbance at 570 nm was measured on a microplate reader.

## COc1cc(OC)c(C23CC4CC(CC(C4)C2)C3)cc1C(=O)NCc1ccc(O)cc1O [AP736, 5-adamantan-1-yl-N-(2,4-dihydroxybenzyl)-2,4-dimethoxybenzamide]
[1]
  percentage of DPPH radical scavenging activity: increases
[2]
  expression of MMP-1: tended to decrease
Raw 264.7 cells; 10 μM, 8 hours
  cell viability: about 100%
Raw 264.7 cells; 10 μM, 24 hours
  cell viability: about 100%
Raw 264.7 cells; 20 μM, 8 hours
  cell viability: about 100%
Raw 264.7 cells; 20 μM, 24 hours
  cell viability: about 100%
Raw 264.7 cells; 30 μM, 24 hours
  cell viability: about 80%
